# Source: US5455226A, “EGF-containing pharmaceutical composition for the treatment of bronchopulmonary pathologies” (Synthelabo, priority 1991, dated 1995)
# “And” between values parts separate entries of the source, which are not always exact repeats. Equal values may be shown once.
# Experiments:
# [1] = system: human respiratory epithelial cells (from nasal polyps); assay: Dissociated respiratory epithelial cells cultured in a collagen lattice: cell number and morphology; format: cell-based
# Method: (§1) Cultures of respiratory epithelial cells are obtained from nasal polyps by the technique of explants (growth of cells around the explant) and by the technique of dissociated cells cultured in a three-dimensional collagen matrix (collagen lattice).
# (§2) The explants are cultured in the presence of varying concentrations (0, 5, 10 and 20 ng/ml) of EGF (EGF from mouse submaxillary glands, ref. E 4127, Sigma). The growth area around the explants is quantified after 3 and 4 days of culture. The percentage of growth area covered with ciliated cells as well as the ciliary beat frequency were measured after 3 days of culture. For the collagen lattice culture technique, the number of cells in culture was quantified up to 11 days after of culture, and this in the absence and in the presence of EGF (10 ng/ml).
# [2] = system: superficial respiratory epithelial cells; assay: Retraction of the collagen lattice by respiratory epithelial cells; format: cell-based, human; conditions: after 8 days of culture in the presence of EGF
# Method: (§3) The study of the repair of wounds of the respiratory epithelium was performed on an in vitro model. Thirty to 50 cells are detached from the culture by means of a micromanipulator so as to expose the collagen matrix on which the epithelial cells proliferate. The repair of this injured region is monitored as a function of time on cultures in the presence of EGF (10 ng/ml) or in the absence of EGF. For the technique of culture of dissociated cells in a collagen lattice, the effect of EGF on the retraction of the collagen lattice was studied after 8 days of culture. This retraction is quantified by measuring the area of the collagen lattice.
# [3] = system: ciliated cells of human respiratory epithelium; assay: Functional activity of ciliated cells in explant culture; format: cell-based; conditions: 20 ng/ml of EGF, after 3 days of culture
# Method: as §1, §2
# [4] = system: human respiratory epithelial cells (from nasal polyps); assay: Explant culture of respiratory epithelial cells: growth area around explants; format: cell-based; conditions: increasing EGF concentration up to 20 ng/ml; p<0.05
# Method: as §1, §2
# [5] = system: surface epithelial cells dissociated from nasal polyp; assay: In vitro model of lesion of the respiratory epithelium: repair index; format: cell-based, human; conditions: for repair index: 10 ng/ml
# Method: Surface epithelial cells dissociated from nasal polyp are cultured on a collagen I matrix in RPMI culture medium supplemented with hydrocortisone,retinoic acid, insulin and EGF (epidermal growth factor). After about 3 days of culture, when the cells have become confluent, the supplemented culture medium is replaced with unsupplemented RPMI medium. After incubating for 12 hours in the presence of unsupplemented medium, the culture is placed on the stage of an inverted microscope equipped with a micromanipulator. A microcapillary, guided by the micromanipulator, makes it possible to detach cells, thus creating a wound with a surface area of about 100,000 μm^2. The unsupplemented culture medium is then replaced with culture medium containing only EGF at different concentrations. Video recordings of the injured culture are then made every hour. Using these video recordings, an image analyser makes it possible to monitor the variation of the surface area of the wound as a function of time. A regression line between the surface area of the wound (expressed in μm^2) and the time (expressed in hours) makes it possible to calculate the slope of the regression line obtained, a slope which corresponds to the decrease in the surface area of the wound per unit of time. The latter parameter corresponds to the repair index (the higher the index, the faster the repair).
# Eight nasal polyps were used to culture respiratory epithelial cells (5 culture dishes per polyp). In each of these dishes, the injured cultures are incubated either in the presence of unsupplemented culture medium, or in the presence of culture medium supplemented with EGF at various concentrations (5, 10, 20 or 50 ng/ml). From the variation of the surface area as a function of time (the repair index corresponds to the slope of the regression line between the surface area of the wound and time), we calculated the repair index. This index is then expressed relative to the repair index obtained with the EGF-free culture medium used as control. The results obtained show a systematic increase in the repair index for wounds in the presence of EGF. At a concentration of 5 and 10 ng/ml, EGF stimulates the repair by 38% and 36% respectively. At the concentration of 20 ng/ml, the stimulation is 49%.
# This study was carried out under the same experimental conditions as above. The repair index for the wounds was quantified in the presence of unsupplemented culture medium and in the presence of culture medium supplemented either with EGF of mouse submaxillary gland (m-EGF: 10 ng/ml), or with recombinant human EGF (h-EGF: 10 ng/ml).
# [6] = system: human respiratory epithelial cells in culture; assay: In vitro model of respiratory epithelium wound repair (30 to 50 cells detached by micromanipulator); format: cell-based; conditions: EGF 10 ng/ml
# Method: as §3
Substance,"number of cells ([1]; after 8 days of culture, in the presence of EGF vs without)","rate of cell proliferation ([1]; collagen lattice, EGF 10 ng/ml, compared with cultures without EGF)","formation of three-dimensional structures ([1]; collagen lattice, EGF in the culture medium)",collagen lattice area [2] [mm^2],ciliary beat frequency [3] [Hz],percentage of the growth surface covered with ciliated cells [3] [%],growth area around the explants [4],repair index [5] [μm^2 /h],stimulation of the repair (repair index relative to EGF-free control) ([5]; EGF 5 ng/ml) [%],stimulation of the repair (repair index relative to EGF-free control) ([5]; EGF 10 ng/ml) [%],stimulation of the repair (repair index relative to EGF-free control) ([5]; EGF 20 ng/ml),"repair index compared with the index obtained with 20 ng/ml of EGF ([5]; EGF 50 ng/ml, p<0.05)",slope of the regression line (wound repair) [6]
"EGF: Epidermal Growth Factor polypeptide from mouse submaxillary glands, ref. E 4127, Sigma",twice as high,higher,promotes the formation of tubular type three-dimensional structures,660,14.5,43,substantial increase in the growth area,11215,38,36,49% and ~50%,significantly (p<0.05) reduced,-71.8
"h-EGF: recombinant human EGF (Sigma, Ref. E-3264)",–,–,–,–,–,–,–,11492,–,–,–,–,–
